Results from patent US11180510B2, “Xanthine derivatives and uses thereof as inhibitors of bromodomains of BET proteins” (Centre national de la recherche scientifique, priority 2017, dated 2021).
Like-named read-outs stand apart in the source and are kept apart here.

Columns and labels:
[1] = system: Molm14 cells; experiment: Cell Titer-Glo cell viability assay, Molm14; format: cell-based; conditions: Homo sapiens, MOLM-14, 72 h, mean of three experiments, NA = IC50 > maximal concentration used
Method: (§1) The human leukemia cell line Jurkat (ATCC® TIB-152) and Molm14 was maintained in RPMI-1640 medium or MEMα, respectively and supplemented both with 10% FBS at 37° C. and 5% CO2.
(§2) In antiproliferative assays, compounds were assayed for their growth inhibiting activity towards the described cancer cell lines using the Cell Titer-Glo Luminescent Cell Viability Assay as described by the manufacturer (Promega Corporation). Briefly, 10.000 cells were plated onto 96 well-plates (white with clear bottom (3610, Corning Costar)) in 90 μL media per well immediately before assay. 10 μL of compounds were added at different concentrations (ranging from 50 μM to 6 nM) to each well and cell cultures were incubated 37° C. during 72 h. Vehicle (DMSO) was used as negative control, JQ1 (a pan-BET inhibitor) was used as positive control and all compounds were tested in constant percentage of DMSO (1%). After addition of 50 μL Cell Titer-GLO, shaking 2 minutes and incubating at room temperature 10 minutes, the Luminescence was measured using a Centro luminometer LB960 (Berthold). Dose-response curves were generated and effective dose 50 values (EC50) were calculated using non-linear regression analysis (Graph Pad Prism).

[2] = target: T1, Brdt(BD1) (Homo sapiens, UniProt Q58F21); experiment: HTRF BET selectivity profile, Brdt(BD1); format: binding
T1 construct: GST tagged bromodomain proteins were purchased from BPS Bioscience; purchased BPS Bioscience
Method: (§3) HTRF assays were performed in white 384 Well Small Volume™ HiBase Polystyrene Microplates (Greiner) with a total working volume of 20 μL. Compounds were dispensed, with 100 nL per well (0.5% final DMSO), from a concentration stock of 10 mM in 100% DMSO and with serial DMSO dilutions, using an Echo® 550 robot from the Access Labcyte platform (Labcyte) and based on the transfer of liquid by acoustic wave. Then, 19.5 μL of buffer is added, using a Multidrop Combi (Thermo Fisher Scientific). Finally, for each assay, 200 nL of master mix (protein+donor+acceptor) and 200 nL of peptide Is added in the assay wells according to the final concentration and buffer described in Table 3, using the Echo® 550 robot (Labcyte). The IC50 measurements were performed in triplicates (Table 2 and 3). All HTRF reagents (donor and acceptor) were purchased from CisBio Bioassays and reconstituted according to the supplier protocols. The peptide was purchased from Genic Bio Synthetic. The BRD4(1) protein was produced and purified in the laboratory. HTRF signals were measured, after a final incubation (3 h or 6 h or overnight at room temperature or 4° C., according to the bromodomain), using a PHERAstar FS (BMG Labtech) with an excitation filter at 337 nm and fluorescence wavelength measurement at 620 and 665 nm, an integration delay of 60 μs and an integration time of 500 μs. Results were analyzed with a two-wavelengths signal ratio: [intensity (665 nm)/intensity (620 nm)]*104.
(§4) Percentage of inhibition was calculated using the following equation: % inhibition=[(compound signal)−(min signal)]/[(max signal)−(min signal)]*100, where ‘max signal’ is the signal ratio with the compound vehicle alone (DMSO) and ‘min signal’ the signal ratio without peptide.
(§5) Selectivity profiles of bromodomain inhibitors were performed as described in HTRF screen section. […] HTRF detection reagents (EPIgeneous™ Binding Domain kits) were purchased from Cisbio Bioassays and used according to supplier's protocol. GST tagged bromodomain proteins were purchased from BPS Bioscience and histone peptide from Genic Bio Synthetic.

[3] = target: T2, Brd2(BD2) (Homo sapiens, UniProt P25440); experiment: HTRF BET selectivity profile, Brd2(BD2); format: binding; conditions: read-out: Brd2(BD2) IC50
T2 construct: GST tagged bromodomain proteins were purchased from BPS Bioscience; purchased BPS Bioscience
T2 sequence (P25440 344-453 limits assumed): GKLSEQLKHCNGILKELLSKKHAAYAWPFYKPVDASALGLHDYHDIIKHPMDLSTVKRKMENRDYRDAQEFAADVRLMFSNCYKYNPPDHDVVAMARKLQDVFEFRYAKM
Method: (§6) HTRF assays were performed in white 384 Well Small Volume™ HiBase Polystyrene Microplates (Greiner) with a total working volume of 20 μL. Compounds were dispensed, with 100 nL per well (0.5% final DMSO), from a concentration stock of 10 mM in 100% DMSO and with serial DMSO dilutions, using an Echo® 550 robot from the Access Labcyte platform (Labcyte) and based on the transfer of liquid by acoustic wave. Then, 19.5 μL of buffer is added, using a Multidrop Combi (Thermo Fisher Scientific). […] All HTRF reagents (donor and acceptor) were purchased from CisBio Bioassays and reconstituted according to the supplier protocols. The peptide was purchased from Genic Bio Synthetic. The BRD4(1) protein was produced and purified in the laboratory.
as §4, §5

[4] = target: T3, Brd3(BD2) (Homo sapiens, UniProt Q15059); experiment: HTRF BET selectivity profile, Brd3(BD2); format: binding
T3 construct: GST tagged bromodomain proteins were purchased from BPS Bioscience; purchased BPS Bioscience
T3 sequence (Q15059 306-415 limits assumed): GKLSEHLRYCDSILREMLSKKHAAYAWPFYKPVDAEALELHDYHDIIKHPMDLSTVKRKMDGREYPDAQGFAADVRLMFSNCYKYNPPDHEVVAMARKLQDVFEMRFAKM
Method: as §3, §4, §5

[5] = target: Brd3(BD1) (Homo sapiens, UniProt Q15059); experiment: HTRF BET selectivity profile, Brd3(BD1); format: binding; parameters: GST tagged bromodomain proteins were purchased from BPS Bioscience; purchased BPS Bioscience; conditions: for Ratio 3-1 vs 3-2: selectivity Brd3(BD1) vs Brd3(BD2), HTRF IC50
Chain of Brd3(BD1) (Q15059 34-140 limits assumed): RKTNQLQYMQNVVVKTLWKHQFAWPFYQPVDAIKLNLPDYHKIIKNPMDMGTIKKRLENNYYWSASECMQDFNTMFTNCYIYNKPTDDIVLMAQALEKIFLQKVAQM
Method: as §6, §4, §5

[6] = target: T4, BRD4(BD1) (Homo sapiens, UniProt O60885); experiment: HTRF assay, BRD4(BD1)/histone peptide interaction; format: binding; parameters: made in house; conditions: for IC50: HTRF; for Ratio 4-1 vs 4-2: selectivity Brd4(BD1) vs Brd4(BD2), HTRF IC50
Method: as §6, §4, §5

[7] = system: Jurkat cells; experiment: Cell Titer-Glo cell viability assay, Jurkat; format: cell-based; conditions: Homo sapiens, 72 h, mean of three experiments, NA = IC50 > maximal concentration used
Method: as §1, §2

[8] = target: T5, Brd4(BD2) (Homo sapiens, UniProt O60885); experiment: HTRF BET selectivity profile, Brd4(BD2); format: binding
T5 construct: GST tagged bromodomain proteins were purchased from BPS Bioscience; purchased BPS Bioscience
Method: as §3, §4, §5

[9] = target: T6, Brd2(BD1) (Homo sapiens, UniProt P25440); experiment: HTRF BET selectivity profile, Brd2(BD1); format: binding; conditions: for IC50: read-out: Brd2(BD1) IC50; for Ratio 2-1 vs 2-2: selectivity Brd2(BD1) vs Brd2(BD2), HTRF IC50
T6 construct: GST tagged bromodomain proteins were purchased from BPS Bioscience; purchased BPS Bioscience
T6 sequence (P25440 74-180 limits assumed): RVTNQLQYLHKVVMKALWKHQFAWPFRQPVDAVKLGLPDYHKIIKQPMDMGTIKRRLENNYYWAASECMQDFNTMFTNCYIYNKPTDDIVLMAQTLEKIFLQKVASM
Method: as §6, §4, §5

[10] = target: T4, BRD4(BD1); experiment: Isothermal Titration Calorimetry; format: binding; conditions: ITC; read-out: Binding affinity (Kd) to BRD4(1) by Isothermal Titration Calorimetry
Method: FIG. 1. Isothermal Titration Calorimetry (ITC) of 43c. Thermogram (top) and non-linear least squares fit model of the integrated data (bottom) at 15° C. of Brd4 (BD1) […] as a function of the molar ratio of ligand to the protein.
ITC was used to evaluate the thermodynamics parameters of the binding between BRD4 (BD1) and the selected compounds. Titrations were carried out on a MicroCal ITC200 microcalorimeter (GE Healthcare, Piscataway, N.J.). Each experiment was designed using a titrant concentration (protein in the syringe generally between 100 and 400 μM) set 10 to 15 times the analyte concentration (compound in the cell generally between 10 and 40 μM) and using 13 injections at 25° C. A first small injection (generally 0.2 μL) was included in the titration protocol in order to remove air bubbles trapped in the syringe prior titration. Raw data were scaled after setting the zero to the titration saturation heat value. Integrated raw ITC data were fitted to a one site non-linear least squares fit model using the MicroCal Origin plugin as implemented in Origin 7 (Origin Lab). Finally, ΔG and TΔS values were calculated from the fitted ΔH and KA values using the equations ΔG=−R.T.inKA and ΔG=ΔH−TΔS.

[11] = mean of three experiments, NA = IC50 > 50 μM, read-out: Brd4(8D1) IC50
[12] = triplicates, NA = IC50 > maximal concentration of compound used

Structure (SMILES)	IC50 [1]	IC50 [2]	IC50 [3]	IC50 [4]	IC50 [5]	Ratio 3-1 vs 3-2 [5]	IC50 [6, 11]	IC50 [6, 12]	Ratio 4-1 vs 4-2 [6]	IC50 [7]	IC50 [8]	IC50 [9]	Ratio 2-1 vs 2-2 [9]	Kd [10]
CCn1cnc2c1c(=O)[nH]c(=O)n2Cc1ccc(CNS(=O)(=O)c2ccn(-c3ccccc3)n2)cc1 [Compound 24b]	10.2 µM	6.26 µM	6.05 µM	12 µM	1 µM	12	0.846 µM	0.846 µM	7	14.2 µM	5.85 µM	3.33 µM	2	–
CCn1cnc2c1c(=O)[nH]c(=O)n2Cc1ccc(CNS(=O)(=O)c2ccc(-c3cc(C)n[nH]3)s2)cc1 [Compound 25a]	9.9 µM	3.47 µM	3.2 µM	3.17 µM	0.507 µM	6	0.284 µM	0.284 µM	14	13.5 µM	4.05 µM	2.1 µM	2	–
CCn1cnc2c1c(=O)[nH]c(=O)n2Cc1ccc(CNS(=O)(=O)c2cc3ccccc3s2)cc1 [Compound 25b]	11.1 µM	7.44 µM	10.5 µM	12.4 µM	1.54 µM	8	0.779 µM	0.779 µM	16	5.2 µM	12.8 µM	1.38 µM	8	–
CCn1cnc2c1c(=O)[nH]c(=O)n2Cc1ccc(CNS(=O)(=O)c2ccc3scnc3c2)cc1 [Compound 25c]	14.8 µM	14 µM	23.5 µM	17.4 µM	4.77 µM	4	1.59 µM	1.6 µM	13	6.1 µM	21.2 µM	4.18 µM	7	–
CCn1cnc2c1c(=O)[nH]c(=O)n2Cc1ccc(CNS(=O)(=O)c2cccc(-c3ccccc3)c2)cc1 [Compound 29c]	8.9 µM	7.44 µM	14.7 µM	18.9 µM	1.6 µM	12	0.814 µM	0.814 µM	15	6.9 µM	12.2 µM	5.47 µM	3	1.1 µM
CCn1cnc2c1c(=O)[nH]c(=O)n2Cc1cc(OC)c(CNS(=O)(=O)c2ccc3c(c2)CCCC(=O)N3)cc1OC [Compound 32a]	30.2 µM	–	–	–	–	–	–	13 µM	–	23.3 µM	–	–	–	–
CCCCc1c(C)nc2nc(SCc3nc4c(c(=O)[nH]c(=O)n4Cc4ccc(CNS(=O)(=O)c5ccc6c(c5)CCCC(=O)N6)cc4)n3CC)nn2c1C [Compound 32c, N-(4-((8-(((6-butyl-5,7-dimethyl-[1,2,4]triazolo[1,5-a]pyrimidin-2-yl)thio)methyl)-7-ethyl-2,6-dioxo-1,2,6,7-tetrahydro-3H-purin-3-yl)methyl)benzyl)-2-oxo-2,3,4,5-tetrahydro-1H-benzo[b]azepine-7-sulfonamide]	–	18.9 µM	3.36 µM	4.16 µM	4.43 µM	1	1.08 µM	1.1 µM	9	32.5 µM	9.15 µM	4.67 µM	0.7	2.1 µM
CCn1cnc2c1c(=O)[nH]c(=O)n2Cc1ccc(CNS(=O)(=O)c2ccc(Oc3cncc(C)n3)cc2)cc1 [Compound 42c]	12.2 µM	–	–	–	–	–	–	0.75 µM	–	–	–	–	–	–
CCn1cnc2c1c(=O)[nH]c(=O)n2Cc1ccc(CNS(=O)(=O)c2ccc(C(=O)N3CCOCC3)cc2)cc1 [Compound 44b]	23.7 µM	0.397 µM	1.96 µM	3.32 µM	0.23 µM	14	0.123 µM	0.123 µM	34	–	4.24 µM	0.352 µM	6	0.17 µM
CCn1cnc2c1c(=O)[nH]c(=O)n2Cc1ccc(CNS(=O)(=O)c2ccc(Oc3ccc(C(F)(F)F)cc3)cc2)cc1 [Compound 44c]	9.3 µM	–	–	–	–	–	–	0.522 µM	–	–	–	–	–	–
